The subject of experiment [1] is Swiss Webster mice. Kind of experiment: Forced swim test (FST) in mice. In kind it is in vivo. Conditions: for antidepressant-type effect, reduction of immobility time: acute single I.P. administration, ketamine 1.5 mg/kg, melatonin 4 and 16 mg/kg, alone or combined, vs control group. The protocol: (§1) Male mice of the “Swiss Webster” strain between 25 and 35 grams were used. All mice were placed in polyethylene boxes (8 mice per box) at a controlled temperature between 21-22° C., in a room with the dark light cycle reversed (12:12 hours, with artificial light from 10 PM to 10 A.M). The behavior evaluations of the mice were carried out between 10 AM and 3 PM. These mice were fed Purina® for rodents and water ad libitum.
A single intraperitoneal administration (I.P.) was performed in a volume of […] of body weight, as the following treatment scheme: […]
The forced swim test consists of two sessions. In the first session (pre-test), the animals are placed in a glass cylinder with the following dimensions: 20 cm in diameter by 30 cm in height. The glass cylinder is filled with water to a height of 15 cm, at 23-25° C. temperature. The mice are kept in the cylinder for 15 minutes and are naturally forced to swim. The second session takes place 24 hours after the first session and 30 minutes after administering the different pharmacological treatments. The mice are placed in the glass cylinder for 5 minutes and videotaped for further analysis. The immobility of mice in FST is defined as depressive-type behavior and is manifested by a minimal amount of movements made by the animal to stay afloat. The antidepressant effect of a drug is reflected in this test as a decrease in immobility time and an increase in swimming compared to control animals (administered with the vehicle).

Experiment [2] has as its system olfactory neuronal precursors. Kind of experiment: Formation of spines in cloned olfactory neuronal precursors. The class given is cell-based, human. The following applies: ketamine 10^−7 M. The method, then: (§2) Cloned neuronal precursors obtained by exfoliation of the nasal cavity of a healthy subject without neuropsychiatric disease at the time of sample collection were used. These were grown according to the following process: • a) Solution 1 containing the culture medium characterized by containing one or more amino acids, one or more mineral salts, one or more vitamins, one or more growth factors of natural origin, and one or more antibiotics; • b) Solution 2 containing one or more pH regulators, and one or more calcium chelating agents, whose function is to moisten the cells that will later be propagated; • c) Solution 3 containing one or more substances that break proteins and that allow the separation between the cells by dispersing them; • d) Solution 4 containing one or more substances that allow the cells to be fixed to a glass support; • e) Solution 5 of cryopreservation containing one or more cryoprotective agents of neuronal origin cells; • f) Solution 6 of differentiation containing the maintenance solution without natural origin growth factors, and a cyclic nucleotide compound that induces differentiation; • g) Solution 7 containing one or more identifiers of specific protein molecules of the neuronal structure such that they allow to distinguish the neuronal cells from patients with neuropsychiatric diseases from healthy subjects; and • h) Solution 8 containing one or more fluorescent and/or enzymatic markers to recognize the identifiers of solution 7; up to passage 5 at a temperature of 37° C. in a 5% CO^2 atmosphere. Cells in passage 5 were incubated with increasing concentrations of ketamine or melatonin or the combination of both according to the following administration schedules:
(§3) • i. Incubation of the neuronal precursors with a vehicle (0) and ketamine for 12 hours (1), 24 hours (2), 48 hours (3) and 72 hours (4). • ii. Incubation of neuronal precursors with 10^−7 molar ketamine for 48 hours followed by incubation for 6 hours with 10^−7 molar ketamine and melatonin concentrations ranging from 10^−11 molar (7), from 10^−9 molar (8), 10^−7 molar (9) and 10^−5 molar (10), this evaluation was incorporated in a treatment with vehicle (0), with 10^−7 molar melatonin (5) and 10^−7 molar ketamine (6). Said treatment is outlined in FIG. 1. • iii. […]
Once the cells were fixed, they were processed to stain them with specific markers that recognize the spines, which are made up of spinophilin and filamentous actin (FIG. 2A and 2B). […] The spines were counted in 10 fields chosen at random and normalized between the total cells number present in each field (Table 1). […]

For experiment [3], the system named is olfactory neuronal precursors. Kind of experiment: Cell cluster formation of olfactory neuronal precursors. In kind it is cell-based, human. The protocol:
as §2, §3

In experiment [4] the test system is Swiss Webster mice. Kind of experiment: Open field test (OFT) in mice. The class given is in vivo. The method, then:
as §1
In order to discard nonspecific actions of any of the treatments on locomotor activity, all the treatments studied in the TST and in the FST were analyzed in the OFT. Motor activity was measured in an apparatus formed by an opaque plexiglass box (40×30×20 cm), divided into 12 equal squares ([…]). The animal was placed in a corner of the cage and its behavior was videotaped for a period of 5 minutes. An observer, who was blinded to drug treatments, recorded the total number of times the animal crossed a square during the test. A count was considered when the animal fully crossed from one plaza to the next. Any change in the number of counts is considered as an alteration in locomotor activity. The test box was carefully cleaned after each session. To avoid changes in the behavior of the animals after the first experiment, the mice were used only once per test type.
The following groups of mice were treated under a single administration schedule: with a vehicle (26), a sub-effective dose of ketamine 1.5 mg/Kg (27), 3 mg/Kg (28), 10 mg/Kg (29), 20 mg/Kg (30), 30 mg/Kg (31), plus no effective dose of melatonin and 30 minutes later they were subjected to TST.
Under the same single administration scheme; (24, 7 and 0.5 h) before starting the trial, two other independent groups were administered with melatonin 4 mg/kg (33) and 16 mg/kg (34) plus no effective dose of ketamine, with their respective control (32). In other groups, melatonin 4 mg/kg +ketamine 1.5 mg/kg (36) and melatonin 16 mg/kg+ketamine 1.5 mg/kg (37) were administered, with their respective control (35).
The following groups of mice were treated under a triple administration scheme: with a vehicle (38), three administrations of melatonin 4 mg/Kg (39), three administrations of melatonin 16 mg/Kg (40), three administrations of ketamine 1.5 mg/Kg (41), three administrations of melatonin 4 mg/Kg+one administration of ketamine 1.5 mg/Kg (42) and three administrations of melatonin 16 mg/Kg+one administration of ketamine 1.5 mg/Kg (43) and 30 minutes later they were subjected to TST.
Evaluating the effect of melatonin in combination with ketamine on the ambulatory activity of mice in the open field test (OFT) all results are expressed as the mean±SEM of 8-12 animals. Comparisons were made using a one-way ANOVA analysis, followed by the Bonferroni test: * p<0.05, ** p<0.01, *** p<0.001.

Experiment [5] relates to Swiss Webster mice. Kind of experiment: Tail suspension test (TST) in mice. The class given is in vivo. Conditions: N 8.
Setting [6] is: single administration, ketamine 1.5 mg/kg (group 27).
[7] abbreviates: single administration, ketamine 3 mg/kg (group 28).
[8] abbreviates: single administration, ketamine 10 mg/kg (group 29).
[9] abbreviates: single administration, ketamine 20 mg/kg (group 30).
Where [10] appears, read: single administration, ketamine 30 mg/kg (group 31).
Setting [11] is: triple administration, ketamine 1.5 mg/kg (group 41).
Where [12] appears, read: single administration, melatonin 4 mg/kg (group 33).
Setting [13] is: single administration, melatonin 16 mg/kg (group 34).
Setting [14] is: triple administration, melatonin 4 mg/kg (group 39).
Setting [15] is: triple administration, melatonin 16 mg/kg (group 40).

Marks after values point to notes of the source that are not given here.

On to `CNCCC(Oc1ccc(C(F)(F)F)cc1)c1ccccc1` (centres unmarked) [Fluoxetine, fluoxetine], for which the Immobility time in the experiment on Swiss Webster mice [1] (fluoxetine 5 mg/kg I.P. (group 19)) stood at 49.76 ± 4.65 s; with Swiss Webster mice [1] (fluoxetine 10 mg/kg I.P. (group 20)) it was 35.25 ± 3.88 s.

For `CNC1(c2ccccc2Cl)CCCCC1=O` (centres unmarked) [Ketamine, 2-(2-chlorophenyl)-2-(methylamino) cyclohexanone], the Spines in experiment [2] (incubation 12 h (group 1)) turned out to be 10.25 ± 1.89%; in experiment [2] (incubation 24 h (group 2)), 22.65 ± 2.16%; in experiment [2] (incubation 48 h (group 3)), 45.31 ± 4.26%; in experiment [2] (incubation 72 h (group 4)), 45.31 ± 3.88%. The cell cluster in experiment [3] (ketamine 10^−7 M pre-treatment 48 h, then vehicle (group 6)) turned out to be 7.12 ± 0.92%; in experiment [3] (two vehicle administrations + one administration of ketamine 10^−7 M (group 13)), 3.1 ± 1.0%. For the same compound, in the experiment on Swiss Webster mice [1], the “antidepressant-type effect, reduction of immobility time” value is given as “ineffective”. The “ambulatory activity in OFT” value in the experiment with Swiss Webster mice [4] (highest doses of ketamine (10 30 mg/kg), did not reach statistical significance, F(3,31)=2.99, p=0.047) is “modified ambulatory activity”; in the experiment on Swiss Webster mice [4] (ketamine 1.5, 3.0, 10.0 and 20.0 mg/kg, F(2,23)=0.545, p=0.589) it was “did not produce changes in the ambulatory activity”. In addition, the “Count number/5 min” value is on record as 40.12 ± 3.23 in the experiment with Swiss Webster mice [4] (setting [6]); 45.25 ± 4.29 with Swiss Webster mice [4] (setting [7]); 56.62 ± 4.36** in the experiment with Swiss Webster mice [4] (setting [8]); 56.00 ± 3.62** in the experiment with Swiss Webster mice [4] (setting [9]); 60.12 ± 1.60*** with Swiss Webster mice [4] (setting [10]); 41.400 ± 3.97 in the experiment with Swiss Webster mice [4] (setting [11]). Also, the “Stop number/5 min” value is given as 28.62 ± 3.15 with Swiss Webster mice [4] (setting [6]); 28.25 ± 2.66 in the experiment on Swiss Webster mice [4] (setting [7]); 45.25 ± 2.85** with Swiss Webster mice [4] (setting [8]); 45.50 ± 3.70 in the experiment on Swiss Webster mice [4] (setting [9]); 45.37 ± 1.71 in the experiment on Swiss Webster mice [4] (setting [10]); 28.000 ± 2.53 with Swiss Webster mice [4] (setting [11]). Further, the “Count Number/5 min ± mean standard error” value in the experiment with Swiss Webster mice [5] (ketamine 1.5 mg/kg) came out at 40.12 ± 3.23; in the experiment with Swiss Webster mice [5] (ketamine 3 mg/kg), 45.25 ± 4.29; with Swiss Webster mice [5] (ketamine 10 mg/kg), 56.34 ± 4.36.

As to `COc1ccc2[nH]cc(CCNC(C)=O)c2c1` [Melatonin, N-[2-(5-methoxy-1H-indol-3-yl)ethyl] acetamide], the cell cluster in experiment [3] (triple administration: three administrations of melatonin 10^−7 M (group 12)) was 2.9 ± 0.9%; in experiment [3] (vehicle pre-treatment, then melatonin 10^−7 M (group 5)) it was 7.61 ± 0.59%. Further, the “antidepressant-type effect, reduction of immobility time” value with Swiss Webster mice [1] was “ineffective”. Besides, the Immobility time with Swiss Webster mice [1] (melatonin 4 mg/kg I.P. (group 21)) is given as 41.21 ± 7.29 s; in the experiment with Swiss Webster mice [1] (melatonin 16 mg/kg I.P. (group 22)), 17.38 ± 2.51 s. In addition, the “Count number/5 min” value in the experiment with Swiss Webster mice [4] (setting [12]) came to 41.12 ± 2.48; in the experiment with Swiss Webster mice [4] (setting [13]), 38.50 ± 3.74; in the experiment on Swiss Webster mice [4] (setting [14]), 47.200 ± 5.20; with Swiss Webster mice [4] (setting [15]) it was 42.625 ± 5.97. Also, the “Stop number/5 min” value was found to be 25.37 ± 2.18 in the experiment on Swiss Webster mice [4] (setting [12]), 25.12 ± 2.36 in the experiment on Swiss Webster mice [4] (setting [13]), 29.111 ± 2.16 in the experiment with Swiss Webster mice [4] (setting [14]) and 26.375 ± 4.60 in the experiment on Swiss Webster mice [4] (setting [15]). Moreover, the “Count Number/5 min ± mean standard error” value in the experiment on Swiss Webster mice [5] (melatonin 4 mg/kg) is on record as 41.125 ± 2.489; in the experiment on Swiss Webster mice [5] (melatonin 16 mg/kg), 38.500 ± 3.746.

These data come from patent US20230414568A1, “PHARMACEUTICAL COMBINATION FOR MOOD DISORDERS” (INSTITUTO NACIONAL DE PSIQUIATRÍA "RAMÓN DE LA FUENTE MUÑIZ", priority 2018, published 2023).
